Test results published in ChEMBL document CHEMBL1208784, “Refinement of the pharmacophore of 3,4-dihydroquinazoline-2(1H)-thiones for their anti-melanogenesis activity” (Bioorg Med Chem Lett, 2010).

What was measured:
B16 [1] = experiment: Antimelanogenic activity in mouse B16 cells assessed as inhibition of alpha-MSH-induced melanogenesis; type: functional, cell-based
B16 [2] = experiment: Antimelanogenic activity in mouse B16 cells assessed as inhibition of alpha-MSH-induced melanogenesis at 10 uM; type: functional
B16 [3] = experiment: Antimelanogenic activity in mouse B16 cells assessed as inhibition of alpha-MSH-induced melanogenesis at 100 uM; type: functional
Tyrosinase = target: T1, Tyrosinase (Mus musculus, UniProt P11344); experiment: Inhibition of tyrosinase in alpha-MSH-induced mouse B16 cells; type: cell-based
T1 sequence (P11344 whole entry): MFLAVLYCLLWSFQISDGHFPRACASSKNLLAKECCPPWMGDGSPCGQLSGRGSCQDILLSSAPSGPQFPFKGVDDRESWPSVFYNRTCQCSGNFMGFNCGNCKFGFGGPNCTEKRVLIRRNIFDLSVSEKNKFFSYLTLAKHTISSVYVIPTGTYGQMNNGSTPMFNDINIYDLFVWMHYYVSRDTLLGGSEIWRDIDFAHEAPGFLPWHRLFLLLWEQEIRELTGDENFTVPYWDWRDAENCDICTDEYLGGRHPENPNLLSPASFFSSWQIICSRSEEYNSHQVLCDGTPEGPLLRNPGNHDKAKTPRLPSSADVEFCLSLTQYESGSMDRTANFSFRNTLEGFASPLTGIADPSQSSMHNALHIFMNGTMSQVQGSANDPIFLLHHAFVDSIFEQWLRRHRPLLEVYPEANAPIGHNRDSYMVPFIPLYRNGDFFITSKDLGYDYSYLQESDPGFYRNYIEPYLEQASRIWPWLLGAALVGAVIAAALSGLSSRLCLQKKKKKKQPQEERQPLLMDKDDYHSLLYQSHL

Compound | IC50 (B16 [1]) [µM] | inhibition at 10 µM (B16 [2]) [%] | inhibition at 100 µM (B16 [3]) [%] | IC50 (Tyrosinase) [µM]
Cc1ccc2c(c1)CN(CCC(C)C)C(=S)N2 | 3 | > 100 | – | –
CCCCCCN1Cc2cc(C)ccc2NC1=S | 1.2 | > 100 | – | –
CCCCCCCN1Cc2cc(C)ccc2NC1=S | 1.4 | > 100 | – | –
Cc1ccc2c(c1)CN(CC1CCCCC1)C(=S)N2 | 1.6 | > 100 | – | –
S=C1Nc2ccc(Cl)cc2CN1CC1CCCCC1 | 1.2 | > 100 | – | –
S=C1NCc2ccccc2N1 | 15.8 | 36 | – | –
Cc1ccc2c(c1)CN(C(C)C)C(=S)N2C | 19 | 10 | – | –
Cc1ccc2c(c1)CN(CC(C)C)C(=S)N2C | 17.8 | 18 | – | –
Cc1ccc2c(c1)CN(C(C)C)C(=O)N2 | > 10 | 13 | – | –
Cc1ccc2c(c1)CN(CC(C)C)C(=O)N2 | > 10 | 11 | – | –
Cc1ccc2c(c1)CN(CCC(C)C)C(=O)N2 | > 10 | 15 | – | –
CCCCCCN1Cc2cc(C)ccc2NC1=O | > 10 | 12 | – | –
CCCCCCCN1Cc2cc(C)ccc2NC1=O | > 10 | 19 | – | –
Cc1ccc2c(c1)CN(CC1CCCCC1)C(=O)N2 | > 10 | 18 | – | –
O=C1Nc2ccc(Cl)cc2CN1CC1CCCCC1 | > 10 | 10 | – | –
O=C1NCc2ccccc2N1 | > 10 | 11 | – | –
Cc1ccc2c(c1)CN(C(C)C)C(=S)N2 | 1.9 | > 100 | – | –
Cc1ccc2c(c1)CN(CC(C)C)C(=S)N2 | 1.9 | > 100 | – | –
NC(=O)Nc1ccccc1 | – | – | 0 | –
NC(=S)Nc1ccccc1 [PHENYLTHIOUREA] | – | – | – | 1.8
